Test [1] concerns CD8+ T cells. In words: In vitro T-cell priming assay with aAPCs loaded with peptide/MHC complexes and anti-CD28, multimer staining readout (in vitro immunogenicity). It is filed as cell-based, human. As to conditions: for Wells positive [%]: HLA-A*02 restricted peptides; for donors (positive donors, in vitro immunogenicity) / wells (positive wells, in vitro immunogenicity): HLA class I peptides; for donors (positive donors, in vitro immunogenicity): percentage of positive donors among evaluable; for wells (positive wells, in vitro immunogenicity): percentage of positive wells. The source says: In order to obtain information regarding the immunogenicity of the TUMAPs of the present invention, the inventors performed investigations using an in vitro T-cell priming assay based on repeated stimulations of CD8+ T cells with artificial antigen presenting cells (aAPCs) loaded with peptide/MHC complexes and anti-CD28 antibody.
In order to perform in vitro stimulations by artificial antigen presenting cells loaded with peptide-MHC complex (pMHC) and anti-CD28 antibody, the inventors first isolated CD8+ T cells from fresh HLA-A*02 leukapheresis products via positive selection using CD8 microbeads (Miltenyi Biotec, Bergisch-Gladbach, Germany) of healthy donors obtained from the University clinics Mannheim, Germany, after informed consent.
PBMCs and isolated CD8+ lymphocytes were incubated in T-cell medium (TCM) until use consisting of RPMI-Glutamax (Invitrogen, Karlsruhe, Germany) supplemented with 10% heat inactivated human AB serum (PAN-Biotech, Aidenbach, Germany), 100 U/ml Penicillin/100 μg/ml Streptomycin (Cambrex, Cologne, Germany), 1 mM sodium pyruvate (CC Pro, Oberdorla, Germany), 20 μg/ml Gentamycin (Cambrex). 2.5 ng/ml IL-7 (PromoCell, Heidelberg, Germany) and 10 U/ml IL-2 (Novartis Pharma, Nurnberg, Germany) were also added to the TCM at this step.
Generation of pMHC/anti-CD28 coated beads, T-cell stimulations and readout was performed in a highly defined in vitro system using four different pMHC molecules per stimulation condition and 8 different pMHC molecules per readout condition.
The purified co-stimulatory mouse IgG2a anti human CD28 Ab 9.3 (Jung et al., 1987) was chemically biotinylated using Sulfo-N-hydroxysuccinimidobiotin as recommended by the manufacturer (Perbio, Bonn, Germany). Beads used were 5.6 μm diameter streptavidin coated polystyrene particles (Bangs Laboratories, Illinois, USA).
pMHC used for positive and negative control stimulations were A*0201/MLA-001 (peptide […] (SEQ ID NO. 664) from modified Melan-A/MART-1) and A*0201/DDX5-001 ([…] from DDX5, SEQ ID NO. 665), respectively.
800.000 beads/200 μl were coated in 96-well plates in the presence of 4×12.5 ng different biotin-pMHC, washed and 600 ng biotin anti-CD28 were added subsequently in a volume of 200 μl. Stimulations were initiated in 96-well plates by co-incubating […] CD8+ T cells with 2×10^5 washed coated beads in 200 μl TCM supplemented with 5 ng/ml IL-12 (PromoCell) for 3 days at 37° C. Half of the medium was then exchanged by fresh TCM supplemented with 80 U/ml IL-2 and incubating was continued for 4 days at 37° C. This stimulation cycle was performed for a total of three times. For the pMHC multimer readout using 8 different pMHC molecules per condition, a two-dimensional combinatorial coding approach was used as previously described (Andersen et al., 2012) with minor modifications encompassing coupling to 5 different fluorochromes. Finally, multimeric analyses were performed by staining the cells with Live/dead near IR dye (Invitrogen, Karlsruhe, Germany), CD8-FITC antibody clone SK1 (BD, Heidelberg, Germany) and fluorescent pMHC multimers. For analysis, a BD LSRII SORP cytometer equipped with appropriate lasers and filters was used. Peptide specific cells were calculated as percentage of total CD8+ cells. Evaluation of multimeric analysis was done using the FlowJo software (Tree Star, Oreg., USA). In vitro priming of specific multimer+ CD8+ lymphocytes was detected by comparing to negative control stimulations.
Exemplary flow cytometry results after TUMAP-specific multimer staining for two peptides of the invention are shown in FIG. 3 together with corresponding negative controls.

For test [2], the target named is HLA-A*02:01 (Homo sapiens, UniProt P04439, D140Y/D185E/D98H/E176V/E277Q/G131W/G231S/I119V/I121R/I166T/I218V/L300P/L318F/N151K/N90K/P208A/P217A/Q86G/Q94H/R138H/R169H/T345S). In words: MHC binding assay: UV-ligand exchange with beta2m ELISA (exchange yield). Particulars: binding to HLA-A*02:01, β2m ELISA. The method, boiled down:
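Exchange yield reflects how much β2m remains bound, measured by ELISA: streptavidin capture of 100-fold diluted monomers, HRP anti-β2m at 37° C. for 1 h, TMB read at 450 nm. Monomers come from UV cleavage of a conditional HLA-A*02:01 ligand in the presence of the candidate peptide.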
Background: ELISA stands for enzyme-linked immunosorbent assay.

Turning to “460 (AMLEKNYKL; listed as Homo sapiens) [compound 460]”, in test [1], the “Wells positive [%]” value was ““+” (<20% = +)”. Moreover, in test [2], the “Peptide exchange (MHC class I binding score, peptide exchange yield)” value (“Peptide exchange” for short) is ““++++” (≥75% = ++++)”.

For the substance “652 (TLWYRAPEV; listed as Homo sapiens) [compound 652]”, in test [1], the “donors (positive donors, in vitro immunogenicity)” value (from here on “donors”) is recorded as “++++ (>=70% = ++++)” and the “wells (positive wells, in vitro immunogenicity)” value is “+++ (50%-69% = +++)”.

Take “48 (ALAELYEDEV; listed as Homo sapiens) [compound 48]”: the “Wells positive [%]” value in test [1] is on record as ““+” (<20% = +)”. For the same substance, the “Peptide exchange” value in test [2] was ““+++” (≥50 = +++)”.

As to “199 (ALQDVPLSSV; listed as Homo sapiens) [compound 199]”, the “Wells positive [%]” value in test [1] is on record as ““+” (<20% = +)”. For the same substance, the “Peptide exchange” value in test [2] is reported as ““+++” (≥50 = +++)”.

In the case of “113 (GLLPTPLFGV; listed as Homo sapiens) [compound 113]”, the “Wells positive [%]” value in test [1] is ““+” (<20% = +)”. Besides, the “Peptide exchange” value in test [2] is reported as ““+++” (≥50 = +++)”.

Take “141 (YLDFSNNRL; listed as Homo sapiens) [compound 141]”: the “Wells positive [%]” value in test [1] is ““+” (<20% = +)”. Also, the “Peptide exchange” value in test [2] is ““++” (≥20% = ++)”.

For “3 (SLASKLTTL; listed as Homo sapiens) [compound 3]”, the “Wells positive [%]” value in test [1] is ““+” (<20% = +)”. Also, in test [2], the “Peptide exchange” value is recorded as ““++++” (≥75% = ++++)”.

On to “11 (KIFEMLEGV; listed as Homo sapiens) [compound 11]”, for which, in test [1], the “Wells positive [%]” value is ““+” (<20% = +)”. Moreover, in test [2], the “Peptide exchange” value is ““+++” (≥50 = +++)”.

For “319 (SLEPQIQPV; listed as Homo sapiens) [compound 319]”, the “Wells positive [%]” value in test [1] is on record as ““+” (<20% = +)”. Also, the “Peptide exchange” value in test [2] is given as ““++” (≥20% = ++)”.

Consider “511 (FLDPYCSASV; listed as Homo sapiens) [compound 511]”, for which the “Wells positive [%]” value in test [1] is reported as ““+” (<20% = +)”. The “Peptide exchange” value in test [2] is recorded as ““++” (≥20% = ++)”.

Regarding “166 (YLNHLEPPV; listed as Homo sapiens) [compound 166]”, in test [1], the “Wells positive [%]” value is reported as ““++++” (>=70% = ++++)”. Further, in test [2], the “Peptide exchange” value is ““+++” (≥50 = +++)”.

On to “8 (FTLGNVVGMYL; listed as Homo sapiens) [compound 8]”, for which the “Wells positive [%]” value in test [1] is on record as ““+” (<20% = +)”. Further, in test [2], the “Peptide exchange” value is reported as ““++++” (≥75% = ++++)”.

As to “603 (FLIEPEHVNTV; listed as Homo sapiens) [compound 603]”, the “Wells positive [%]” value in test [1] is on record as ““+” (<20% = +)”. In addition, the “Peptide exchange” value in test [2] was ““++” (≥20% = ++)”.

On to “648 (LLWGNAIFL; listed as Homo sapiens) [compound 648]”, for which, in test [1], the “donors” value is reported as “+++ (50%-69% = +++)” and the “wells (positive wells, in vitro immunogenicity)” value was “++ (20%-49% = ++)”.

“384 (ILFANPNIFV; listed as Homo sapiens) [compound 384]”: in test [1], the “Wells positive [%]” value is ““+” (<20% = +)”. The “Peptide exchange” value in test [2] was ““+++” (≥50 = +++)”.

For the substance “56 (KLYEGIPVLL; listed as Homo sapiens) [compound 56]”, the “Wells positive [%]” value in test [1] is ““+” (<20% = +)”. For the same substance, the “Peptide exchange” value in test [2] was ““++++” (≥75% = ++++)”.

“247 (VLLPNDLLEKV; listed as Homo sapiens) [compound 247]”: the “Wells positive [%]” value in test [1] is on record as ““+” (<20% = +)”. The “Peptide exchange” value in test [2] is reported as ““+++” (≥50 = +++)”.

For the substance “36 (YVLEDLEVTV; listed as Homo sapiens) [compound 36]”, the “Wells positive [%]” value in test [1] is ““+” (<20% = +)”. Also, the “Peptide exchange” value in test [2] was ““++” (≥20% = ++)”.

Regarding “663 (KIQEMQHFL; listed as Homo sapiens) [compound 663]”, in test [1], the “donors” value is “+++ (50%-69% = +++)” and the “wells (positive wells, in vitro immunogenicity)” value is recorded as “+ (<20% = +)”.

“2 (SLLEADPFL; listed as Homo sapiens) [compound 2]”: the “Wells positive [%]” value in test [1] is ““+” (<20% = +)”. Further, the “Peptide exchange” value in test [2] is ““+++” (≥50 = +++)”.

In the case of “38 (FLLEDDIHVS; listed as Homo sapiens) [compound 38]”, the “Wells positive [%]” value in test [1] is recorded as ““+” (<20% = +)”. Moreover, the “Peptide exchange” value in test [2] is ““+++” (≥50 = +++)”.

“662 (KIQEILTQV; listed as Homo sapiens) [compound 662]”: in test [1], the “donors” value was “+++ (50%-69% = +++)” and the “wells (positive wells, in vitro immunogenicity)” value is “+ (<20% = +)”.

Take “60 (SLTIDGIYYV; listed as Homo sapiens) [compound 60]”: the “Wells positive [%]” value in test [1] is on record as ““++++” (>=70% = ++++)”. For the same substance, the “Peptide exchange” value in test [2] is recorded as ““++++” (≥75% = ++++)”.

Regarding “150 (RLWEEGEELEL; listed as Homo sapiens) [compound 150]”, in test [1], the “Wells positive [%]” value was ““+” (<20% = +)”. The “Peptide exchange” value in test [2] is ““+++” (≥50 = +++)”.

As to “443 (GLWEIENNPTV; listed as Homo sapiens) [compound 443]”, in test [1], the “Wells positive [%]” value is recorded as ““+” (<20% = +)”. In test [2], the “Peptide exchange” value is on record as ““+++” (≥50 = +++)”.

As for “143 (LLLDITPEI; listed as Homo sapiens) [compound 143]”, the “Wells positive [%]” value in test [1] was ““+” (<20% = +)”. Further, in test [2], the “Peptide exchange” value is ““++++” (≥75% = ++++)”.

In the case of “659 (ILFPDIIARA; listed as Homo sapiens) [compound 659]”, in test [1], the “donors” value is “+++ (50%-69% = +++)” and the “wells (positive wells, in vitro immunogenicity)” value is “+ (<20% = +)”.

Turning to “519 (GLLHLTLLL; listed as Homo sapiens) [compound 519]”, the “Peptide exchange” value in test [2] was ““+++” (≥50 = +++)”.

As for “303 (AILPQLFMV; listed as Homo sapiens) [compound 303]”, in test [2], the “Peptide exchange” value is reported as ““++++” (≥75% = ++++)”.

Turning to “155 (RVANLHFPSV; listed as Homo sapiens) [compound 155]”, in test [2], the “Peptide exchange” value is on record as ““+++” (≥50 = +++)”.

On to “539 (ALFDAQAQV; listed as Homo sapiens) [compound 539]”, for which the “Peptide exchange” value in test [2] was ““+++” (≥50 = +++)”.

In the case of “190 (FLSSLTETI; listed as Homo sapiens) [compound 190]”, the “Peptide exchange” value in test [2] is on record as ““+++” (≥50 = +++)”.

Consider “306 (ALVNVQIPL; listed as Homo sapiens) [compound 306]”, for which the “Peptide exchange” value in test [2] is on record as ““+++” (≥50 = +++)”.

In the case of “9 (GAAKDLPGV; listed as Homo sapiens) [compound 9]”, in test [2], the “Peptide exchange” value is listed as ““++” (≥20% = ++)”.

Regarding “117 (ILPDGEDFLAV; listed as Homo sapiens) [compound 117]”, the “Peptide exchange” value in test [2] was ““+++” (≥50 = +++)”.

Values taken from patent US10280205B2, “Method for treating cancer with an activated T lymphocyte that selectively recognizes a cancer cell consisting of specific peptide” (immatics biotechnologies GmbH, priority 2015, dated 2019).
